Experimental data taken from paper PMC11203575, “The First In Vivo Study Shows That Gyrophoric Acid Changes Behavior of Healthy Laboratory Rats” (International Journal of Molecular Sciences, 2024).

Biological target: T1, human serum albumin (HSA) (Homo sapiens, UniProt P02768)
T1 construct: gene ALB; Albumin from human serum (A1887, Sigma Aldrich)
Experiment: intrinsic fluorescence quenching titration (Stern-Volmer), synchronous and 3D fluorescence
Type: binding
Settings: read-out: KB × 10^6 (M^-1) (converted)

T1 sequence (P02768 25-609): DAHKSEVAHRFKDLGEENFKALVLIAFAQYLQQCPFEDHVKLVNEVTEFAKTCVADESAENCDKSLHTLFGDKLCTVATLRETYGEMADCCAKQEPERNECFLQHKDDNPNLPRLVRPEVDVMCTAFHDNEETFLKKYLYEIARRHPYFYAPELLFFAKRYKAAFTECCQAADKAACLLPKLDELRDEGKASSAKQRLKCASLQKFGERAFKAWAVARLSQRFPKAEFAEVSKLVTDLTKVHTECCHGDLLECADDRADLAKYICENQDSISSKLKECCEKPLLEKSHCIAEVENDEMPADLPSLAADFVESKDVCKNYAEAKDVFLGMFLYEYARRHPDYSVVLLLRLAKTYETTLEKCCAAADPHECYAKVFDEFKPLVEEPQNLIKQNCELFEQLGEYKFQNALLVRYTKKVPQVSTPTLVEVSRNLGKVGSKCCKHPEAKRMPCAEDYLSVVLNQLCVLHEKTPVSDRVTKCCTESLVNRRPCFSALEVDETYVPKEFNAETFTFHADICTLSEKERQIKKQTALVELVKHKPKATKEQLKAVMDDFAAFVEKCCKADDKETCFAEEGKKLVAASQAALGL

Kd: 0.559 µM
Compound: Cc1cc(OC(=O)c2c(C)cc(OC(=O)c3c(C)cc(O)cc3O)cc2O)cc(O)c1C(=O)O [GA, Gyrophoric acid]
